One data set has as its system right Purkinje fiber. Description: Effect on myocardial action potential duration (APD75) in isolated, perfused Purkinje fiber. The format is cell-based, mongrel adult dog. The following applies: Canis lupus familiaris, 20 min, 20 minutes' incubation, field stimulus of 1 Hz, 37°C, read-out: T (%), percent prolongation of myocardial action potential duration (APD75); for activation at 1 µM: Dose 1 x 10^-6 M; for activation at 10 µM: Dose 10 x 10^-6 M; for activation at 100 µM: Dose 100 x 10^-6 M. How it is done:
After a mongrel adult dog was anesthetized by the intravenous administration of 30 mg/kg of pentobarbital, the heart was excised therefrom. Then, the right Purkinje fiber was isolated in a nutrient fluid (i.e., Tyrode's solution). The isolated right Purkinje fiber was fixed in a constant-temperature bath (20 ml) at 37°C and perfused with Tyrode's solution. In this state, the myocardial action potential duration (APD75) was measured before and after the administration of each test compound. Then, the percent prolongation of myocardial action potential duration (T) after the administration of each test compound was calculated according to the following equation. T(%) =(B - A)/(A)x 100 [formula] where A: APD75 before administration B: APD75 after administration
APD75 was measured as follows: A field stimulus of 1 Hz was given to the right Purkinje fiber, and any change in action potential was detected by a glass microelectrode (10-20 MΩ) penetrated into a Purkinje fiber and monitored on an oscilloscope via an amplifier. The waveform on the oscilloscope was analyzed by means of a computer, and the duration beween the point of action potential generation adn the point of 75% repolarization was defined as APD75. The test compounds shown in Table 2 were separately added to the perfusing nutrient fluid, and after 20 minutes' incubation was recorded. This test was carried out according to the method of Sato et al. [S. Sato, K. Hashimoto; Arzneimittel Forschung, 34(1), 3a, 376-380(1984)].

Data set [1] can be described thus: Toxicity test (mortality rate 24 hours after administration). Conditions: mouse, in vivo, ip; 100 mg/kg (i.p.); twenty-four hours after administration; groups of three mice. How it is done: The test compounds were separately administered to mice (ddy strain, male). The administration of each compound was carried out intraperitoneally (i.p.) in a dose of 100 mg/kg. Twenty-four hours after the administration, the mortality rate of the mice (in groups of three) was examined.

The nature of data set [2]: Stability test in acid aqueous solution (Solution 1 of the Japanese Pharmacopoeia, pH 1.2), remaining compound by HPLC. The class given is physicochemical. The following applies: Solution 1 (pH 1.2). Here is the method:
In order to confirm the stability of the compounds of the present invention in an acid aqueous solution, stability was tested on the fumarate of 6-[3-[N-[2-(4-methanesulfonylaminophenyl)ethyl]-N-propylamino]propyl]-1,3-dimethyl-2,4(1H,3H)pyrimidinedione (the compound obtained in Example 118; hereinafter referred to as compound A) which is a compound in accordance with the present invention, and 1,3-dimethyl-6-{2-[N-ethyl-3-phenylpropylamino]ethylamino}2,4(1H,3H)-pyrimidinedione (hereinafter referred to as compound B) which is a pyrimidinedione derivative having a substituted amino group at the 6-position of the pyrimidinedione ring as described in European Publication No. 454,498 A2 and was used for purposes of comparison.
Solution 1 (pH 1.2) described in the Japaense Pharmacopoeia was prepared by adding 7.0 ml of hydrochloric acid and water to 2.0 g of sodium chloride so as to give the final volume of 1,000 ml.
Compounds A and B were dissolved in Solution 1 at a concentration of 2 mg/ml and the resulting solutions were stirred at 37°C. Thus, changes with time in the percentages of the remaining compounds A and B were examined by HPLC.

Another data set deals with ventricular muscle. Nature of the data set: Effect on ventricular muscle refractory period (ERP) under ventricular pacing in anesthetized dog. Conditions: ventricular pacing at 400 msec. The class given is in vivo, mongrel adult dog. Here is the method: According to the method described below, the refractory period was measured before and after the intravenous administration of each test compound, and the percent prolongation of refractory period (ERP) was calculated according to the following equation. ERP prolongation (%) =(W - Y)/(Y)x 100 [formula] where W: Refractory period after administration Y: Refractory period before administration
After a mongrel adult dog was anesthetized by the intravenous (i.v.) administration of 30 mg/kg of pentobarbital, the chest was opened on the right side. Then, a set of silver-silver chloride electrodes spaced by 3 mm was sewn on the right ventricle, and […] electrical stimuli (a duration of 4 msec, and a current intensity equal to twice the threshold) were given at an interval of 400 msec. Thereafter, a small amount of alcohol was injected into a sinus artery in order to destroy the pacemaker activity, and the ventricular refractory period (ERP) was measured under ventricular pacing. Specifically, one train comprised a series of stimuli having an interval of 400 msec, and the interval between trains was usually 400 msec. During measurement of the refractory period, this interval was shortened by decrements of 10 msec, and the interval between trains at which the response to the first stimulus of the train disappeared was regarded as the refractory period. These electrical stimuli were given by programmed stimulation using a heart stimulation apparatus (Diamedical Co., Ltd.; DHM-226-3).

This is an account of results in patent EP0697407B1, “Pyrimidinedione derivatives and antiarrhythmic compositions containing same” (MITSUI TOATSU CHEMICALS, Inc., priority 1994, dated 1996).

In the case of `CCN(CCOc1ccc(NS(C)(=O)=O)cc1)CCc1cc(=O)n(C)c(=O)n1C` [Example 123, 6-[2-[N-ethyl-N-[2-(4-methanesulfonylaminophenoxy)ethyl]amino]ethyl]-1,3-dimethyl-2,4(1H,3H)-pyrimidinedione], in the data set with right Purkinje fiber, the activation at 1 µM is 12%, the activation at 10 µM came to 41% and the activation at 100 µM amounted to 64%.
Broadly, the mortality is the share of the test organisms that died. `CCCN(CCCc1cc(=O)n(C)c(=O)n1C)CCOc1ccc(C(C)=O)cc1` [Example 47, 6-[3-[N-[2-(4-acetylphenoxy)ethyl]-N-propylamino]propyl]-1,3-dimethyl-2,4(1H,3H)pyrimidinedione]: in the data set with right Purkinje fiber, the activation at 1 µM was determined as 13%, the activation at 10 µM amounted to 53% and the activation at 100 µM was 107%. Further, the mortality at 24 h in data set [1] was 0%.
The term fraction remaining denotes the share of the starting amount still present when the sample was taken. For `CCN(CCCc1ccccc1)CCNc1cc(=O)n(C)c(=O)n1C` [compound B, 1,3-dimethyl-6-{2-[N-ethyl-3-phenylpropylamino]ethylamino}2,4(1H,3H)-pyrimidinedione], the “Percentage of remaining compound” value in data set [2] (0 hr, 2 mg/ml, stirred at 37°C, HPLC) was determined as 100%. Besides, in data set [2] (jp solution 1, 3 hr, 2 mg/ml, stirred at 37°C, HPLC, read-out: Percentage of remaining compound), the fraction remaining at 3 h was 96%. Also, the degraded at 6 h in data set [2] (jp solution 1, 6 hours, 37°C, read-out: decrease after 6 hours' heating) was found to be 7%. Further, the amount remaining at 6 h in data set [2] (jp solution 1, 6 hr, 2 mg/ml, stirred at 37°C, HPLC, read-out: Percentage of remaining compound) came out at 93%.
For `CCN(CCCc1cc(=O)n(C)c(=O)n1C)CCOc1ccc(F)cc1` [Example 39, 6-[3-[N-ethyl-N-[2-(4-fluorophenoxy)ethyl]amino]propyl]-1,3-dimethyl-2,4(1H,3H)pyrimidinedione], in the data set with right Purkinje fiber, the activation at 1 µM turned out to be 14%, the activation at 10 µM was 53% and the activation at 100 µM turned out to be 49%.
The corresponding values for `CCN(CCCc1ccc(NS(C)(=O)=O)cc1)CCCc1cc(=O)n(C)c(=O)n1C` [Example 138, 6-[3-[N-ethyl-N-[3-(4-methanesulfonylaminophenyl)propyl]amino]propyl]-1,3-dimethyl-2,4(1H,3H)-pyrimidinedione] are 6%, 22% and 49%.
As to `CC(C)N(CCCc1cc(=O)n(C)c(=O)n1C)CCOc1ccc(NS(C)(=O)=O)cc1` [Example 116, 6-[3-[N-[2-(4-methanesulfonylaminophenoxy)ethyl]-N-isopropylamino]propyl]-1,3-dimethyl-2,4(1H,3H)pyrimidinedione], the activation at 1 µM with right Purkinje fiber was 9%. For the same molecule, the activation at 10 µM with right Purkinje fiber was 43%. In addition, in the data set with right Purkinje fiber, the activation at 100 µM was 77%. The entries for the “ERP (%), percent prolongation of refractory period” value (“ERP (%), percent prolongation” below) in the data set on ventricular muscle (Dose 0.1 mg/kg i.v.), in the data set on ventricular muscle (Dose 0.3 mg/kg i.v.) and in the data set on ventricular muscle (Dose 1.0 mg/kg i.v.) were 6.3%, 12.5% and 25.0%, respectively. For the same molecule, the mortality at 24 h in data set [1] was 0%.
For the molecule `CCN(CCCOc1ccc(NS(C)(=O)=O)cc1)CCCc1cc(=O)n(C)c(=O)n1C` [Example 122, 6-[3-[N-ethyl-N-[3-(4-methanesulfonylaminophenoxy)propyl]amino]propyl]-1,3-dimethyl-2,4(1H,3H)-pyrimidinedione], in the data set with right Purkinje fiber, the activation at 1 µM was 10%, the activation at 10 µM came out at 14% and the activation at 100 µM worked out at 33%.
For `CCN(CCOc1ccc(F)cc1C(C)=O)CCc1cc(=O)n(C)c(=O)n1C` [Example 61, 6-[2-[N-[2-(2-acetyl-4-fluorophenoxy)ethyl]-N-ethylamino]ethyl]-1,3-dimethyl-2,4(1H,3H)pyrimidinedione], in that order: 3%, 18% and 35%.
The corresponding values for `CCN(CCCc1cc(=O)n(C)c(=O)n1C)CCOc1cccc(F)c1` [Example 38, 6-[3-[N-ethyl-N-[2-(3-fluorophenoxy)ethyl]amino]propyl]-1,3-dimethyl-2,4(1H,3H)pyrimidinedione] are 6%, 16% and 22%.
For `CC(C)N(CCCc1cc(=O)n(C)c(=O)n1C)CCOc1ccc(-n2ccnc2)cc1` [Example 53, 6-[3-[N-[2-(4-(1H-imidazol-1-yl)phenoxy)ethyl]-N-isopropylamino]propyl]-1,3-dimethyl-2,4(1H,3H)pyrimidinedione], in the data set on right Purkinje fiber, the activation at 1 µM turned out to be 8%, the activation at 10 µM amounted to 24% and the activation at 100 µM stood at 49%. In addition, the mortality at 24 h in data set [1] worked out at 0%.
Turning to `CCCN(CCOc1ccc(NS(C)(=O)=O)cc1)CCc1cc(=O)n(C)c(=O)n1C` [Example 126, 6-[2-[N-n-propyl-N-[2-(4-methanesulfonylaminophenoxy)ethyl]amino]ethyl]-1,3-dimethyl-2,4(1H,3H)pyrimidinedione], in the data set on right Purkinje fiber, the activation at 1 µM turned out to be 14%, the activation at 10 µM came out at 46% and the activation at 100 µM was 85%. Besides, the “ERP (%), percent prolongation” value in the data set on ventricular muscle (Dose 0.3 mg/kg i.v.) was determined as 5.9%. The “ERP (%), percent prolongation” value in the data set with ventricular muscle (Dose 1.0 mg/kg i.v.) turned out to be 11.8%.
As for `CCCN(CCCc1cc(=O)n(C)c(=O)n1C)CCc1ccc([N+](=O)[O-])cc1` [Example 76, 1,3-dimethyl-6-[3-[N-[2-(4-nitrophenyl)ethyl]-N-propylamino]propyl]-2,4(1H,3H)pyrimidinedione], in the data set on right Purkinje fiber, the activation at 1 µM worked out at 52% and the activation at 10 µM came out at 114%.
As for `CCN(CCCc1cc(=O)n(C)c(=O)n1C)CCOc1ccc([N+](=O)[O-])cc1` [Example 28, 6-[3-[N-ethyl-N-[2-(4-nitrophenoxy)ethyl]amino]propyl]-1,3-dimethyl-2,4(1H,3H)pyrimidinedione], in the data set with right Purkinje fiber, the activation at 1 µM came to 14%, the activation at 10 µM came to 35% and the activation at 100 µM worked out at 114%.
The corresponding values for `CCN(CCCc1cc(=O)n(C)c(=O)n1C)CCc1ccc([N+](=O)[O-])cc1` [Example 84, 6-[3-[N-ethyl-N-[2-(4-nitrophenyl)ethyl]amino]propyl]-1,3-dimethyl-2,4(1H,3H)pyrimidinedione] are 23%, 72% and 96%.
With `CC(=O)c1cc(F)ccc1OCCN(C)CCCc1cc(=O)n(C)c(=O)n1C` [Example 60, 6-[3-[N-[2-(2-acetyl-4-fluorophenoxy)ethyl]-N-methylamino]propyl]-1,3-dimethyl-2,4(1H,3H)pyrimidinedione], in the data set with right Purkinje fiber, the activation at 1 µM stood at 13%, the activation at 10 µM stood at 34% and the activation at 100 µM came to 47%. In addition, the mortality at 24 h in data set [1] worked out at 0%.
